Data published in patent US20260144793A1, “METHODS OF TREATING CANCER” (AMGEN INC., priority 2022, published 2026).

Legend:
[1] = test system: patients with KRAS G12C-mutated NSCLC, CRC, or other solid tumors; settings: N = 27, all RMC-4630 doses with sotorasib 960 mg QD; TRAEs related to the labelled drug (combination: either drug)
From the text: Note that D1D4 indicates administration of Day 1 and Day 4 of each 7 days.
Dose exploration will begin with treating 3-4 subjects at Dose Level 1. The study dose-limiting toxicity (DLT) period is 21 days. Once all subjects enrolled at a certain dose level and schedule are DLT evaluable, a Dose Level Review Team (DLRT) meeting will be convened. For any dose level (including Dose Level 1), and depending on observed safety data, the following may occur: 1) dose escalation to the next highest dose level or 2) additional enrollment to the current dose level or 3) dose de-escalation to the next lowest dose level. Rules for dose-escalation/de-escalation are derived using a modified Toxicity Probability Interval-2 (mTPI-2) model (Guo et al, 2017) with a target toxicity probability of 0.30 (Table 2)
The grading of adverse events will be based on the guidelines provided in the CTCAE version 5.0. […] A subject without a DLT will not be DLT evaluable if the date of decision to end both investigational products is before the completion of the DLT window.
The adverse event grading scale to be used for this study will be the CTCAE v5.0. The investigator is responsible for ensuring that all serious adverse events observed by the investigator or reported by the subject that occur after the signing of the informed consent through the safety follow-up visit or 30 days after last day of dosing interval of investigational product(s)/protocol-required therapies, whichever is later, are reported using the Events CRF. The criteria for grade 4 in the CTCAE grading scale differs from the regulatory criteria for serious adverse events. If adverse events correspond to a grade 4 CTCAE toxicity grading scale criteria (e.g., laboratory abnormality reported as grade 4 without manifestation of life-threatening status), it will be left to the investigator's judgment to also report these abnormalities as serious adverse events. For any adverse event that applies to this situation, comprehensive documentation of the event's severity must be recorded in the subject medical records. If the investigator becomes aware of serious adverse events suspected to be related to investigational products after the protocol-required reporting period is complete, then these serious adverse events will be reported within 24 hours following the investigator's awareness of the event using the Events CRF. Since a study endpoint is overall survival, the investigator will also need to collect/report fatal serious adverse events (regardless of causality) within 24 hours following investigator's awareness of the event. […] However, if the investigator becomes aware of serious adverse events suspected to be related to investigational products, then these serious adverse events will be reported within 24 hours following the investigator's awareness of the event. Serious adverse events reported outside of the protocol-required reporting period will be captured within the safety database as clinical trial cases and handled accordingly based on relationship to investigational product. If further safety related data is needed to fulfill any regulatory reporting requirements for a reportable event, then additional information may need to be collected from the subject's records after the subject ends the study.
The primary endpoint was safety/tolerability. Secondary endpoints included objective response rate per RECIST 1.1 and pharmacokinetics.

[2] = Phase 1b study of sotorasib in combination with RMC-4630: pharmacokinetic analysis; assay type: in vivo, human; settings: sotorasib 960 mg QD + RMC-4630 100, 140 or 200 mg; compared with monotherapy studies
From the text: The primary endpoint was safety/tolerability.

[3] = Concomitant administration of sotorasib with acid reducing agents; assay type: in vivo; settings: with proton pump inhibitors (e.g., omeprazole) or H2-receptor antagonists (e.g., famotidine)
[4] = test system: phosphorylation of extracellular signal-regulated kinase (ERK); settings: preclinical studies; cited from earlier work

## C=CC(=O)N1CCN(c2nc(=O)n(-c3c(C)ccnc3C(C)C)c3nc(-c4c(O)cccc4F)c(F)cc23)[C@@H](C)C1 [Sotorasib, 6-fluoro-7-(2-fluoro-6-hydroxyphenyl)-(1M)-1-[4-methyl-2-(propan-2-yl)pyridin-3-yl]-4-[(2S)-2-methyl-4-(prop-2-enoyl)piperazin-1-yl]pyrido[2,3-d]pyrimidin-2 (1H)-one]
[1]
  AST increased, All Grades, %: 4%
  AST increased, Grade 3, %: 4%
  Ascites, All Grades, %: 4%
  Ascites, Grade 3, %: 4%
  Colitis, All Grades, %: 4%
  Colitis, Grade 3, %: 4%
  Diarrhea, All Grades, %: 26%
  Diarrhea, Grade 3, %: 7%
  Dry mouth, All Grades, %: 11%
  Dyspnea, All Grades, %: 4%
  Dyspnea, Grade 3, %: 4%
  Edema (general, peripheral, periorbital, facial), All Grades, %: 26%
  Fatigue, All Grades, %: 11%
  Total TRAE, All Grades, %: 56%
  Total TRAE, Grade 3, %: 22%
[2]
  Average exposure in the combination: consistent with distributions observed in monotherapy studies
[3]
  Sotorasib concentrations on concomitant administration: decreased sotorasib concentrations
[4]
  Inhibition of ERK phosphorylation: inhibited nearly all detectable phosphorylation
